These results are taken from ChEMBL document CHEMBL4304800, “C4-Phenylthio β-lactams: Effect of the chirality of the β-lactam ring on antimicrobial activity” (2019).

In one assay the test system is Moraxella catarrhalis. Nature of the assay: Bactericidal activity against serine beta-lactamase producing Moraxella catarrhalis incubated in MH broth for 24 to 48 hrs by microbroth dilution method. The assay is classed as functional.
Assay [1] concerns Mycobacterium tuberculosis. Nature of the assay: Antitubercular activity against serine beta-lactamase producing Mycobacterium tuberculosis H37Rv after 14 days in presence of middlebrook 7H9/BSA medium by eleven fold serial dilution method. To be noted: 336 h. The assay is classed as functional.
In assay [2] the test system is Mycobacterium tuberculosis. The assay is described as follows: Antitubercular activity against serine beta-lactamase producing Mycobacterium tuberculosis H37Rv after 14 days in presence of Chol/BSA medium by eleven fold serial dilution method. The assay is classed as functional. To be noted: 336 h.
Assay [3] deals with Mycobacterium tuberculosis. Nature of the assay: Antitubercular activity against serine beta-lactamase producing Mycobacterium tuberculosis H37Rv after 14 days in presence of Glu/BSA medium by eleven fold serial dilution method. It counts as functional. To be noted: 336 h.
The subject of assay [4] is Mycobacterium tuberculosis. The assay is described as follows: Antitubercular activity against serine beta-lactamase producing Mycobacterium tuberculosis H37Rv after 14 days in presence of DPPC/BSA medium by eleven fold serial dilution method. To be noted: 336 h. It counts as functional.
The test system of assay [5] is Mycobacterium tuberculosis. Nature of the assay: Antitubercular activity against serine beta-lactamase producing Mycobacterium tuberculosis H37Rv after 14 days in presence of Glu/Cas medium by eleven fold serial dilution method. It counts as functional. To be noted: 336 h.
For assay [6], the system named is Mycobacterium tuberculosis. The assay is described as follows: Antitubercular activity against serine beta-lactamase producing Mycobacterium tuberculosis H37Rv after 14 days in presence of DPCC/Cas medium by eleven fold serial dilution method. It counts as functional. To be noted: 336 h.
The test system of assay [7] is Mycobacterium tuberculosis. Nature of the assay: Antitubercular activity against serine beta-lactamase producing Mycobacterium tuberculosis H37Rv after 14 days in presence of GAST/Fe medium by eleven fold serial dilution method. The assay is classed as functional. To be noted: 336 h.
Assay [8] deals with Mycobacterium tuberculosis. The assay is described as follows: Antitubercular activity against clinical drug sensitive Mycobacterium tuberculosis K14b00DS after 14 days in presence of middlebrook 7H9/BSA medium by eleven fold serial dilution method. It counts as functional. To be noted: 336 h.
Assay [9] has as its system Mycobacterium tuberculosis. Nature of the assay: Bactericidal activity against serine beta-lactamase producing Mycobacterium tuberculosis H37Rv assessed as induction of microbial kill at MIC preincubated in middlebrook 7H9 medium for 7 days and further incubated in middlebrook 7H11/BSA supplemented with OADC for 3 weeks by serial dilution based colony counting method. It counts as functional.

The test system of assay [10] is Mycobacterium tuberculosis. Nature of the assay: Bactericidal activity against serine beta-lactamase producing Mycobacterium tuberculosis H37Rv assessed as reduction in microbial cell number at MIC preincubated in middlebrook 7H9 medium for 7 days and further incubated in middlebrook 7H11/BSA supplemented with OADC for 3 weeks by serial dilution based colony counting method. It counts as functional, organism-based.

Assay [11] relates to Mycobacterium tuberculosis. The assay is described as follows: Bactericidal activity against non-replicating persistant form of Mycobacterium tuberculosis H37Rv assessed as minimum anaerobicidal concentration by measuring log reduction in viable microbe number at 200 ug/ml preincubated for 7 days in anaerobic condition post adaptation to decreasing oxygen levels and further incubated in middlebrook 7H11/BSA supplemented with ODAC for 4 to 5 weeks by serial dilution based assay. The assay is classed as functional.

In brackets after ≈: the same amount, converted by molar mass. Activity calls are given as the source filed them. The rule behind the calls is not given here.

Consider `O=C1CC(Sc2cccc(C(F)(F)F)c2)N1` (racemic), for which the minimum bactericidal concentration (MBC) against Moraxella catarrhalis amounted to 1.5 µg/mL (≈ 6.07 µM). Also, the MIC is 1.5 µg/mL (≈ 6.07 µM) with Moraxella catarrhalis; 12.5 µg/mL in [2]; 25 µg/mL in assay [3]; 12.5 µg/mL in assay [4]; 12.5 µg/mL in assay [5]; 0.78 µg/mL in [6]. Also, in assay [1], the MIC99 worked out at 25 µg/mL.

In the assay with Moraxella catarrhalis, `C[C@@H](NC(=O)N1C(=O)C[C@H]1Sc1ccc(F)cc1F)c1ccccc1` had an MBC of 12.5 µg/mL (≈ 34.5 µM). Further, the MIC in the assay with Moraxella catarrhalis came to 12.5 µg/mL (≈ 34.5 µM); in [8], 25 µg/mL. Also, the figures for the MIC99 in [1] and in assay [7] were 50 µg/mL and 0.3 µg/mL, respectively.

For `C[C@@H](NC(=O)N1C(=O)C[C@@H]1Sc1c(F)c(F)c(F)c(F)c1F)c1ccccc1`, in the assay on Moraxella catarrhalis, the MBC was 12.5 µg/mL (≈ 30 µM) and the MIC stood at 12.5 µg/mL (≈ 30 µM). In assay [1], the MIC99 is above 100 µg/mL. In addition, the LCK in [9] was below 3. The result in [10] was Active. Besides, the Activity in assay [11] was 1 log10CFU/ml.

For the compound `O=C1CC(Sc2ccc(F)cc2Cl)N1C(=O)NCc1ccccc1` (racemic), the minimum bactericidal concentration (MBC) in the assay with Moraxella catarrhalis is 12.5 µg/mL (≈ 34.3 µM). For the same compound, the MIC99 amounted to 37.5 µg/mL in [1] and 0.3 µg/mL in assay [7]. The minimum inhibitory concentration (MIC) in assay [2] stood at 18.8 µg/mL; in assay [3], 25 µg/mL; in assay [4], 12.5 µg/mL; in [5], 1.5 µg/mL; in assay [6], 0.78 µg/mL.

In the case of `O=C1CC(Sc2c(F)c(F)c(F)c(F)c2F)N1C(=O)NCc1ccccc1` (racemic), the minimum bactericidal concentration (MBC) with Moraxella catarrhalis amounted to 6.2 µg/mL (≈ 15.4 µM). The MIC99 in assay [1] came out at 12.5 µg/mL. For the same compound, the LCK in assay [9] is recorded as below 3. Also, the outcome in [10] was Active. The MIC in [2] was 25 µg/mL; in assay [3], 6.25 µg/mL; in assay [4], 25 µg/mL; in assay [5] it was 1.5 µg/mL; in [6], 0.78 µg/mL.

In the assay on Moraxella catarrhalis, `C[C@H](NC(=O)N1C(=O)C[C@H]1Sc1ccc(F)cc1F)c1ccccc1` had an MBC of 50 µg/mL (≈ 138 µM). In addition, the MIC against Moraxella catarrhalis is 50 µg/mL (≈ 138 µM); in assay [8], 50 µg/mL. For the same compound, the MIC99 in [1] was determined as 50 µg/mL; in assay [7], 0.7 µg/mL.

For the compound `C[C@@H](NC(=O)N1C(=O)C[C@H]1Sc1c(F)c(F)c(F)c(F)c1F)c1ccccc1`, in the assay on Moraxella catarrhalis, the MBC stood at 3.1 µg/mL (≈ 7.45 µM) and the MIC is 3.1 µg/mL (≈ 7.45 µM). Further, the MIC99 in assay [1] is above 100 µg/mL. Besides, the MIC99 in [7] came to 0.3 µg/mL. Besides, in [9], the LCK is recorded as below 3. Moreover, the outcome in assay [10] was Active. Also, in assay [11], the Activity is listed as 1 log10CFU/ml.

Take `NNC(=O)c1ccncc1` [ISONIAZID]: the figures for the MIC99 in assay [1] and in assay [7] were 0.07 µg/mL and 0.02 µg/mL, respectively. For the same compound, in assay [8], the minimal inhibitory concentration (MIC) stood at 0.08 µg/mL.

On to `O=C1CC(Sc2ccc(F)c(F)c2)N1` (racemic), for which, in assay [1], the MIC99 amounted to 50 µg/mL. Also, the LCK in assay [9] is reported as below 3. Further, the result in assay [10] was Active.

Regarding `C[C@H](NC(=O)N1C(=O)C[C@H]1Sc1c(F)c(F)c(F)c(F)c1F)c1ccccc1`, in the assay with Moraxella catarrhalis, the MBC is 50 µg/mL (≈ 120 µM) and the MIC is 50 µg/mL (≈ 120 µM). The MIC99 in assay [1] amounted to 100 µg/mL. The MIC99 in [7] amounted to 0.7 µg/mL. In assay [9], the LCK is below 3. Moreover, the result in assay [10] was Active.

Take `O=C1CC(Sc2ccc(C(F)(F)F)cc2)N1C(=O)NCc1ccccc1` (racemic): the MIC worked out at 1.6 µg/mL (≈ 4.21 µM) with Moraxella catarrhalis; 25 µg/mL in assay [8]; 25 µg/mL in assay [2]; 25 µg/mL in [3]; 25 µg/mL in assay [4]; 1.5 µg/mL in assay [5]. For the same compound, the MIC in assay [6] was 0.78 µg/mL. Moreover, the MIC99 in assay [1] was 12.5 µg/mL.

In turn, `C[C@H](NC(=O)N1C(=O)C[C@@H]1Sc1ccc(C(F)(F)F)cc1)c1ccccc1` showed a minimum bactericidal concentration (MBC) in the assay with Moraxella catarrhalis of 200 µg/mL (≈ 507 µM). Moreover, the results for the minimum inhibitory concentration (MIC) (in the assay on Moraxella catarrhalis; in assay [8]) were 200 µg/mL (≈ 507 µM) and 25 µg/mL, respectively. The MIC99 in assay [1] was found to be 25 µg/mL.

`C[C@@H](NC(=O)N1C(=O)C[C@@H]1Sc1ccc(F)cc1F)c1ccccc1` showed an MBC against Moraxella catarrhalis of 50 µg/mL (≈ 138 µM). Moreover, the MIC against Moraxella catarrhalis turned out to be 50 µg/mL (≈ 138 µM); in [8] it was 25 µg/mL. In addition, the MIC99 was 25 µg/mL in [1] and 0.7 µg/mL in assay [7].

`C[C@@H](NC(=O)N1C(=O)C[C@@H]1Sc1ccc(F)c(Cl)c1)c1ccccc1` displayed an MBC with Moraxella catarrhalis of 25 µg/mL (≈ 66 µM). This compound showed an MIC against Moraxella catarrhalis of 25 µg/mL (≈ 66 µM). Further, the MIC99 was found to be 25 µg/mL in [1] and 1.5 µg/mL in [7].

In turn, `C[C@H](NC(=O)N1C(=O)C[C@H]1Sc1ccccc1F)c1ccccc1` returned a minimum bactericidal concentration (MBC) in the assay on Moraxella catarrhalis of 50 µg/mL (≈ 145 µM). The compound also yielded a minimum inhibitory concentration (MIC) in the assay on Moraxella catarrhalis of 50 µg/mL (≈ 145 µM). The MIC99 came to 50 µg/mL in [1] and 12.5 µg/mL in assay [7].

In general, MBC refers to the lowest tested concentration that kills the bacteria rather than only halting them. Higher therefore signals weaker bactericidal potency. By MIC is commonly meant the lowest concentration found to suppress growth. By MIC99 is commonly meant an inhibitory concentration at the 99% level, which refers to growth in some studies and to a panel of isolates in others.
